Results as given in ChEMBL document CHEMBL3132770, “4-Aminocyclopentane-1,3-diols as platforms for diversity: synthesis of a screening library” (Medchemcomm, 2014).

Assays:
Format in all cases: functional, cell-based
[1] = Cytotoxicity against human LCLC-103H cells assessed as growth inhibition after 96 hrs by crystal violet staining assay
DAN-G = test: Cytotoxicity against human DAN-G cells assessed as growth inhibition after 96 hrs by crystal violet staining assay
MCF7 = test: Cytotoxicity against human MCF7 cells assessed as growth inhibition after 96 hrs by crystal violet staining assay; conditions: MCF7, 96 h
5637 = test: Cytotoxicity against human 5637 cells assessed as growth inhibition after 96 hrs by crystal violet staining assay; conditions: Homo sapiens, 5637, 96 h

| Compound | IC50 [1] | IC50 (DAN-G) | IC50 (MCF7) | IC50 5637 |
| --- | --- | --- | --- | --- |
| O=C(CCC(=O)c1ccc(-c2ccccc2)cc1)N[C@@H]1C[C@H](OCc2ccccc2)C[C@H]1O (racemic) | > 20 µM | > 20 µM | 16 µM | > 20 µM |
| O=C(CCC(=O)c1ccc(-c2ccccc2)cc1)N[C@H]1C[C@H](OCc2ccccc2)C[C@@H]1O (racemic) | > 20 µM | > 20 µM | 14.2 µM | 20.4 µM |
| O=C(CCCc1c[nH]c2ccccc12)N[C@@H]1C[C@H](Oc2ccc(-c3ccccc3)cc2)C[C@H]1O (racemic) | 13.6 µM | 12.8 µM | 6.76 µM | 11.9 µM |
| O=C(N[C@@H]1C[C@H](Oc2ccc(-c3ccccc3)cc2)C[C@H]1O)C(c1ccccc1)c1ccccc1 (racemic) | 12.3 µM | 13 µM | 8.91 µM | 12.2 µM |
| O=C(N[C@H]1C[C@H](Oc2ccc(-c3ccccc3)cc2)C[C@@H]1O)C(c1ccccc1)c1ccccc1 (racemic) | 13.1 µM | 17.5 µM | 10.3 µM | 12.5 µM |
| O=C(O)CCCc1ccc(N(CCCl)CCCl)cc1 [CHLORAMBUCIL] | 14.5 µM | 27.8 µM | – | – |
| N[C@@H](Cc1ccc(N(CCCl)CCCl)cc1)C(=O)O [MELPHALAN] | 4 µM | – | – | 1.32 µM |
